Experimental data taken from patent US20250179057A1, “MEK IMMUNE ONCOLOGY INHIBITORS AND THERAPEUTIC USES THEREOF” (Immuneering Corporation, priority 2022, published 2025).
Where a name gives a salt, the structure may show the parent alone.

Assays:
[1] = Plasma stability, cynomolgus monkey plasma (K2-EDTA); type: in vitro ADME; conditions: for T1/2 / % Remaining at T120: 2 μM, anti-coagulant K2-EDTA; for % Remaining at T120: 120 min; for half-life at 2 μM: plasma (K2EDTA), pH 7.4, anti-coagulant K2-EDTA
Procedure: (§1) Individual stock solutions of propantheline and lovastatin were prepared at 10 mM in DMSO and were further diluted to 2 mM with DMSO.
(§2) Frozen matrices (Balb/c mouse, Wistar Han rat, Beagle dog, and human plasma containing K2EDTA as anti-coagulant) were thawed and centrifuged at 3100 rpm for 10 minutes at 4° C. to remove particulates. The lipid layer was then removed, and the supernatant was transferred to a new tube without disturbing the pellet. After the matrices were incubated at 37° C. for at least 10 minutes, the pH of each matrix was adjusted to pH 7.4, using 10% phosphoric acid or 1N sodium hydroxide as necessary. Test and control article stock solutions were spiked (2 μL) into matrix (1.998 mL) and mixed to final assay concentration of […]. Duplicate 30-μL aliquots of spiked plasma were transferred to matrix tubes in 96-well plate immediately after spiking for timepoints of 0, 30, 60, 120, 240, and 360 minutes. These tubes were then incubated at 37° C. with shaking and at each timepoint, the corresponding tubes containing samples were quenched with 180 μL of cold acetonitrile containing the internal standards. The quenched samples were vortex-mixed briefly and stored refrigerated. After the final time point (360 minutes), the plates with all quenched samples were vortex-mixed for 10 minutes and then centrifuged at 3100 rpm for 10 minutes at 4° C. to sediment the precipitated protein. The supernatant (50 μL) was transferred to a clean 96-well plate and diluted with 100 μL of water. The plates were stored refrigerated until analysis.
(§3) Data Analysis: Peak area ratios for IS-normalized test article and control article counts were used to calculate the percent remaining relative to the time zero (T0) value. As appropriate, results were plotted and further analyzed to calculate half-life (T1/2) values.
(§4) Mean peak area ratios were used to calculate the % remaining relative to the T0 value:
(§5) In this study, human, cynomolgus monkey, beagle dog, wistar hannover rat, and balb/c plasma stability was determined. Table 28 describes the results of the human plasma stability at 2 μM concentration and anti-coagulant K2-EDTA from 10 to 120 min. Table 29 describes the results of the cynomolgus monkey plasma stability at 2 μM concentration and anti-coagulant K2-EDTA. Table 30 describes the results of the beagle dog plasma stability at 2 μM concentration and anti-coagulant K2-EDTA. Table 31 describes the results of the wistar hannover rat plasma stability at 2 μM concentration and anti-coagulant K2-EDTA. Table 32 describes the results of the balb/c plasma stability at 2 μM concentration and anti-coagulant K2-EDTA.

CYP2C9 = CYP2C9 (Homo sapiens, UniProt P11712); test: CYP450 panel inhibition in human liver microsomes, 2C9 (diclofenac); conditions: for CYP-2C9 (Diclofenac) mean percentage CYP inhibition: human liver microsomes, 10 μM, substrate diclofenac; for inhibition at 30 min, 10 µM: human, microsomes, pH 7.4
Excerpt: The quenched samples were stored refrigerated.

[2] = Plasma stability, beagle dog plasma (K2EDTA); type: in vitro ADME; conditions: beagle dog plasma, 2 μM, anti-coagulant K2-EDTA; for % Remaining at T120: 120 min; for half-life at 2 μM: pH 7.4, read-out: T1/2
Procedure: as §1, §2, §3, §4, §5

balb/c mouse hepatocytes = test: Hepatocyte stability, balb/c mouse; type: in vitro ADME; conditions: 2 μM, 0.5 million cells/ml
Procedure: (§6) In this study, human, cynomolgus monkey, beagle dog, wistar hannover rat, and balb/c mouse hepatocyle stability was determined.

[3] = Plasma stability, rat plasma (Wistar Han / wistar hannover; Table 5 head SD Rat); type: in vitro ADME; conditions: wistar hannover rat plasma, 2 μM, anti-coagulant K2-EDTA; for % Remaining at T120: 120 min; for half-life at 2 μM: pH 7.4, read-out: T1/2
Procedure: as §1, §2, §3, §4, §5

[4] = Plasma stability, mouse plasma (Balb/c; Table 5 head CD-1 Mouse); type: in vitro ADME; conditions: balb/c plasma, 2 μM, anti-coagulant K2-EDTA; for % Remaining at T120: 120 min; for half-life at 2 μM: mouse, pH 7.4, read-out: T1/2
Procedure: as §1, §2, §3, §4, §5

[5] = test system: wistar hannover rat hepatocytes; test: Hepatocyte stability, wistar hannover rat; type: in vitro ADME; conditions: 2 μM, 0.5 million cells/ml
Procedure: as §6

beagle dog hepatocytes = test: Hepatocyte stability, beagle dog; type: in vitro ADME; conditions: 2 μM, 0.5 million cells/ml
Procedure: as §6

human hepatocytes = test: Hepatocyte stability, human; type: in vitro ADME; conditions: 2 μM, 0.5 million cells/ml; for % Remaining At T120 / T1/2: 120 min
Procedure: as §6

CYP2C9, sequence (P11712 whole entry): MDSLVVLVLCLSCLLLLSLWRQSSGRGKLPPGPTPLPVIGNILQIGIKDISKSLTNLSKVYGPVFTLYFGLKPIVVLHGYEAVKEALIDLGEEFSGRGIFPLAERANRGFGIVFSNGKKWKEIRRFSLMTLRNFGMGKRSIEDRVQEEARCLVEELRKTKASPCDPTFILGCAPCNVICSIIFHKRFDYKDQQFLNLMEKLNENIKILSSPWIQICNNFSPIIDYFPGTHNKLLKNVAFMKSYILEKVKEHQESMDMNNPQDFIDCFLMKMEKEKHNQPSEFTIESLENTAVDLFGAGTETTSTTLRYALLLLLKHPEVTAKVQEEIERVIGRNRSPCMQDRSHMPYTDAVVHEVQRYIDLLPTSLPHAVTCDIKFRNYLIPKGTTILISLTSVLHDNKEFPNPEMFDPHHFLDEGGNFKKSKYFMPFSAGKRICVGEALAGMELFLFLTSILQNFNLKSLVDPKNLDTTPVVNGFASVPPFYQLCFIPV

CCCS(=O)(=O)Nc1cccc(Cc2c(CN3CCNCC3)c3cc(Cl)c(OC(=O)N(C)C)cc3oc2=O)c1F [Compound 167]
T1/2 [1]: >2 h | % Remaining at T120 [1]: 117.3% | CYP-2C9 (Diclofenac) mean percentage CYP inhibition (CYP2C9): 71.8% | T1/2 [2]: >2 h | % Remaining at T120 [2]: 106.2% | % Remaining At T120 (balb/c mouse hepatocytes): 52.5% | CLint (L/hr/kg) (balb/c mouse hepatocytes): 7.61 L/h/kg | CLint (mL/min/kg) (balb/c mouse hepatocytes): 127 mL/min/kg | T1/2 (balb/c mouse hepatocytes): 2.15 h | T1/2 [3]: >2 h | % Remaining at T120 [3]: 106.9% | T1/2 [4]: >2 h | % Remaining at T120 [4]: 100.5% | % Remaining At T120 [5]: 31.0% | CLint (L/hr/kg) [5]: 3.16 L/h/kg | CLint (mL/min/kg) [5]: 52.6 mL/min/kg | T1/2 [5]: 1.18 h | % Remaining At T120 (beagle dog hepatocytes): 17.7% | CLint (L/hr/kg) (beagle dog hepatocytes): 9.31 L/h/kg | CLint (mL/min/kg) (beagle dog hepatocytes): 155 mL/min/kg | T1/2 (beagle dog hepatocytes): 0.8 h | CLint (L/hr/kg) (human hepatocytes): 1.67 L/h/kg | CLint (mL/min/kg) (human hepatocytes): 27.9 mL/min/kg | % Remaining At T120 (human hepatocytes): 53.8% | T1/2 (human hepatocytes): 2.23 h

CNS(=O)(=O)Nc1cccc(Cc2c(CN3CCNCC3)c3cc(Cl)c(OC(=O)N(C)C)cc3oc2=O)c1Cl [Compound 256, 6-chloro-3-(2-chloro-3-((N-methylsulfamoyl)amino)benzyl)-2-oxo-4-(piperazin-1-ylmethyl)-2H-chromen-7-yl dimethylcarbamate hydrochloride]
% Remaining at T120 [1]: 95.0% | half-life at 2 μM [1]: 28.5 h | inhibition at 30 min, 10 µM (CYP2C9): 36.5% | % Remaining at T120 [2]: 99.4% | half-life at 2 μM [2]: > 2 h | % Remaining At T120 (balb/c mouse hepatocytes): 65.6% | half-life at 2 μM [3]: 179 h | % Remaining at T120 [3]: 97.2% | % Remaining at T120 [4]: 86.8% | half-life at 2 μM [4]: 9.77 h | % Remaining At T120 [5]: 45.7% | % Remaining At T120 (beagle dog hepatocytes): 62.8% | % Remaining At T120 (human hepatocytes): 91.4%

CNS(=O)(=O)Nc1cccc(Cc2c(CN3CCNCC3)c3cc(F)c(OC(=O)N(C)C)cc3oc2=O)c1F [Compound 134]
T1/2 [1]: 15.8 h | % Remaining at T120 [1]: 93.0% | CYP-2C9 (Diclofenac) mean percentage CYP inhibition (CYP2C9): 20.5% | T1/2 [2]: 10.4 h | % Remaining at T120 [2]: 89.9% | % Remaining At T120 (balb/c mouse hepatocytes): 70.2% | CLint (L/hr/kg) (balb/c mouse hepatocytes): 4.18 L/h/kg | CLint (mL/min/kg) (balb/c mouse hepatocytes): 69.7 mL/min/kg | T1/2 (balb/c mouse hepatocytes): 3.92 h | T1/2 [3]: 21.15 h | % Remaining at T120 [3]: 95.2% | T1/2 [4]: 46.85 h | % Remaining at T120 [4]: 100.2% | % Remaining At T120 [5]: 59.8% | CLint (L/hr/kg) [5]: 1.39 L/h/kg | CLint (mL/min/kg) [5]: 23.1 mL/min/kg | T1/2 [5]: 2.7 h | % Remaining At T120 (beagle dog hepatocytes): 74.7% | CLint (L/hr/kg) (beagle dog hepatocytes): 1.57 L/h/kg | CLint (mL/min/kg) (beagle dog hepatocytes): 26.1 mL/min/kg | T1/2 (beagle dog hepatocytes): 4.75 h | CLint (L/hr/kg) (human hepatocytes): 0.148 L/h/kg | CLint (mL/min/kg) (human hepatocytes): 2.46 mL/min/kg | % Remaining At T120 (human hepatocytes): 94.7% | T1/2 (human hepatocytes): 25.35 h

CNS(=O)(=O)Nc1cccc(Cc2c(CN3CCNCC3)c3ccc(OC(=O)N(C)C)cc3oc2=O)c1Cl [Compound 246, 3-(2-chloro-3-((N-methylsulfamoyl)amino)benzyl)-2-oxo-4-(piperazin-1-ylmethyl)-2H-chromen-7-yl dimethylcarbamate hydrochloride]
% Remaining at T120 [1]: 104.5% | half-life at 2 μM [1]: > 2 h | inhibition at 30 min, 10 µM (CYP2C9): 19.4% | % Remaining at T120 [2]: 100.2% | half-life at 2 μM [2]: 60.5 h | % Remaining At T120 (balb/c mouse hepatocytes): 73.6% | half-life at 2 μM [3]: > 2 h | % Remaining at T120 [3]: 99.3% | % Remaining at T120 [4]: 94.5% | half-life at 2 μM [4]: 18.5 h | % Remaining At T120 [5]: 63.0% | % Remaining At T120 (beagle dog hepatocytes): 79.6% | % Remaining At T120 (human hepatocytes): 95.3%
